Measurements reported in BindingDB's records for patent US9527838 (Merck Sharp & Dohme Corp, 2016).

molecular target: Hexokinase-4 (Human, UniProt P35557); experiment: Glucokinase Activity Assay
Experimental: Recombinant human liver glucokinase was expressed as a FLAG fusion protein in E. coli, and purified on […] M2 AFFINITY GEL (Sigma). The assay was carried out at 30° C. in a 96-well plate. In the plate was distributed 69 μl each of assay buffer (25 mM Hepes Buffer: pH=7.2, 2 mM MgCl2, 1 mM ATP, 0.5 mM TNAD, 1 mM dithiothreitol), to which was added 1 μl of a DMSO solution of the compound or DMSO as control. Then, 20 μl of pre-ice-cooled enzyme mixture (FLAG-GK, 20 U/ml G6PDH) was distributed thereto, to which was added 10 μl of 25 mM glucose as substrate to initiate the reaction (final glucose concentration=2.5 mM). After starting the reaction, the absorbance at 405 nm was measured every 30 seconds for 10 minutes to evaluate the compound based on the initial increase for 5 minutes. FLAG-GK was added so that the increase of absorbance after 5 minutes fell between 0.05 to 0.1 in the presence of 1% DMSO.

Hexokinase-4, sequence (P35557 whole entry, other chains not shown, the tested form may be a part): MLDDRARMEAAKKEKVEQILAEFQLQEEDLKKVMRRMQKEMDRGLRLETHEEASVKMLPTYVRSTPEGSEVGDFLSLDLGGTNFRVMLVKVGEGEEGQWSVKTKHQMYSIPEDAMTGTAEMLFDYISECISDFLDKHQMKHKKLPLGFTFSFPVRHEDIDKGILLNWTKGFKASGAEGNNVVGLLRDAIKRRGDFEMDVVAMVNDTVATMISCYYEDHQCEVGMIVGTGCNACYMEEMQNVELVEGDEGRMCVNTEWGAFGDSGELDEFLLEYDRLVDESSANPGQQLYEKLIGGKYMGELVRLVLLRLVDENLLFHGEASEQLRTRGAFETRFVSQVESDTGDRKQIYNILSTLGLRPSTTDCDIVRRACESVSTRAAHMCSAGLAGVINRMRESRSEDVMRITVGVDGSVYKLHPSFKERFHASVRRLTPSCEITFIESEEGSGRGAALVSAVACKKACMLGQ

Structure (SMILES) | EC50
CCOC(=O)C(C)(C)CSc1cnc(NC(=O)c2nc(Sc3nncn3C)ccc2Sc2ccc(F)cc2)s1 [US9527838, 20] | 16.9 nM
CCOC(=O)CSc1cnc(NC(=O)c2nc(Sc3ccc(F)cc3)ccc2Sc2ccc(F)cc2)s1 [US9527838, 27] | 386 nM
CCOC(=O)Cc1nc(NC(=O)c2nc(Sc3ccc(F)cc3)ccc2Sc2ccc(F)cc2)sc1Cl [US9527838, 29] | 16000 nM
